Reference: patent US20250223259A1, “PROTEASE INHIBITORS FOR TREATING OR PREVENTING CORONAVIRUS INFECTION” (Merck Sharp & Dohme LLC, priority 2022, published 2025)

Biological target: SARS2 coronavirus 3CL protease (Severe acute respiratory syndrome coronavirus 2 (2019-nCoV) (SARS-CoV-2), UniProt P0DTD1)
Experiment: SARS2 Coronavirus 3CL Protease Assay (FRET)
Assay type: biochemical
Settings: SARS2 3CLPro FRET assay; 5 nM enzyme, 30 min pre-incubation with compound, 15 uM peptide substrate, 4 h room temperature
Protocol: The enzymatic activity of SARS2 coronavirus 3CL protease was determined in a FRET (fluorescence resonance energy transfer)-based assay measuring the cleavage of a peptide substrate by recombinantly expressed and purified enzyme. Cleavage of the peptide SEQ ID NO:1 (CPC Scientific) by SARS2 3CL protease was measured in reaction buffer (50 mM Hepes pH 7.5, 0.01% Triton X-100, 0.01% BSA, 2 mM DTT). SARS2 3CL protease (5 nM final concentration) was pre-incubated with compound for 30 minutes before reaction initiation with peptide substrate (15 uM final concentration). Room temperature reactions (4 h) were quenched by addition of a high dose of inhibitor and read on an appropriate plate reader (excitation wavelength=495 nm, emission wavelength=520 nm). Data were analyzed by a standard 4 parameter fit to determine IC50 values.

SMILES | IC50 [nM]
CNC(=O)C(=O)[C@H](CCC(C)(F)F)NC(=O)[C@@H]1[C@H]2CCC[C@H]2CN1C(=O)[C@H](CC(F)(F)F)NC(=O)OC [Example 87, methyl ((S)-1-((1S,3aR,6aS)-1-(((S)-6,6-difluoro-1-(methylamino)-1,2-dioxoheptan-3-yl)carbamoyl)hexahydrocyclopenta[c]pyrrol-2(1H)-yl)-4,4,4-trifluoro-1-oxobutan-2-yl)carbamate] | 7
COC(=O)N[C@H](C(=O)N1CC(C)CCC1C(=O)N[C@@H](CCC(C)(F)F)C(=O)C(=O)NC1CC1)C(C)(C)C (single isomer, unassigned) [Example 30, Methyl ((S)-1-(2(R or S), 5(R or S)-(((S)-1-(cyclopropylamino)-6,6-difluoro-1,2-dioxoheptan-3-yl)carbamoyl)-5-methylpiperidin-1-yl)-3,3-dimethyl-1-oxobutan-2-yl)carbamate] | 40
COC(=O)N[C@H](C(=O)N1C[C@H]2CCCC[C@H]2C[C@H]1C(=O)N[C@@H](CCC(C)(F)F)C(=O)C(=O)NC1CC1)C(C)(C)C [Example 80, methyl ((S)-1-((3S,4aS,8aS)-3-(((S)-1-(cyclopropylamino)-6,6-difluoro-1,2-dioxoheptan-3-yl)carbamoyl)octahydroisoquinolin-2(1H)-yl)-3,3-dimethyl-1-oxobutan-2-yl)carbamate] | 12
COC(=O)N[C@H](C(=O)N1CC2CCC(C1C(=O)N[C@@H](CCC(C)(F)F)C(=O)C(=O)NC1CC1)C2(F)F)C(C)(C)C (single isomer, unassigned) [Example 99, methyl ((S)-1-((1(S or R),2(S or R),5(R or S))-2-(((S)-1-(cyclopropylamino)-6,6-difluoro-1,2-dioxoheptan-3-yl)carbamoyl)-8,8-difluoro-3-azabicyclo[3.2.1]octan-3-yl)-3,3-dimethyl-1-oxobutan-2-yl)carbamate] | 100
CNC(=O)C(=O)[C@H](CCC(C)(F)F)NC(=O)C1C2CC(F)(F)CC2CN1C(=O)[C@@H](NC(=O)OC)C(C)(C)C (single isomer, unassigned) [Example 105, methyl ((S)-1-((1S,3aR,6aS or 1R,3aS,6aR or 1S,3aS,6aR or 1R,3aR,6aS)-1-(((S)-6,6-difluoro-1-(methylamino)-1,2-dioxoheptan-3-yl)carbamoyl)-5,5-difluorohexahydrocyclopenta[c]pyrrol-2(1H)-yl)-3,3-dimethyl-1-oxobutan-2-yl)carbamate] | 11
COC(=O)N[C@H](C(=O)N1CC(C)(C)C[C@H]1C(=O)N[C@@H](CCC(C)(F)F)C(=O)C(=O)NC1CC1)C(C)(C)C [Example 76, Methyl ((S)-1-((S)-2-(((S)-1-(cyclopropylamino)-6,6-difluoro-1,2-dioxoheptan-3-yl)carbamoyl)-4,4-dimethylpyrrolidin-1-yl)-3,3-dimethyl-1-oxobutan-2-yl)carbamate] | 87
COC(=O)N[C@H](C(=O)N1CC2(CCCCC2)C[C@H]1C(=O)N[C@@H](CCC(C)(F)F)C(=O)C(=O)Nc1ccccc1C)C(C)(C)C [Example 12, Methyl ((S)-1-((S)-3-(((S)-6,6-difluoro-1,2-dioxo-1-(o-tolylamino)heptan-3-yl)carbamoyl)-2-azaspiro[4.5]decan-2-yl)-3,3-dimethyl-1-oxobutan-2-yl)carbamate] | 41
COC(=O)N[C@H](C(=O)N1C[C@@H]2CCC[C@@H]2[C@H]1C(=O)N[C@@H](CCC(C)(F)F)C(=O)C(=O)NC1CC1)C(C)(C)C [Example 31, Methyl ((S)-1-((1S,3aR,6aS)-1-(((S)-1-(cyclopropylamino)-6,6-difluoro-1,2-dioxoheptan-3-yl)carbamoyl)hexahydrocyclo-penta[c]pyrrol-2(1H)-yl)-3,3-dimethyl-1-oxobutan-2-yl)carbamate] | 10
COC(=O)N[C@H](C(=O)N1CC2CCC2C1C(=O)N[C@@H](CCC(C)(F)F)C(=O)C(=O)NC1CC1)C(C)(C)C (single isomer, unassigned) [Example 43, Methyl ((S)-1-((1(R or S), 2(R or S),5(R or S))-(2-(((S)-1-(cyclopropylamino)-6,6-difluoro-1,2-dioxoheptan-3-yl)carbamoyl)-3-azabicyclo[3.2.0]heptan-3-yl)-3,3-dimethyl-1-oxobutan-2-yl)carbamate] | 22
COC(=O)N[C@H](C(=O)N1CCCC(C)C1C(=O)N[C@@H](CCC(C)(F)F)C(=O)C(=O)NC1CC1)C(C)(C)C (single isomer, unassigned) [Example 49, Methyl ((S)-1-((2(R or S),3(R or S))-2-(((S)-1-(cyclopropylamino)-6,6-difluoro-1,2-dioxoheptan-3-yl)carbamoyl)-3-methylpiperidin-1-yl)-3,3-dimethyl-1-oxobutan-2-yl)carbamate] | 60
COC(=O)N[C@H](C(=O)N1C[C@H](OC(F)F)C[C@H]1C(=O)N[C@@H](CCC(C)(F)F)C(=O)C(=O)NC1CC1)C(C)(C)C [Example 113, methyl ((S)-1-((2S,4R)-2-(((S)-1-(cyclopropylamino)-6,6-difluoro-1,2-dioxoheptan-3-yl)carbamoyl)-4-(difluoromethoxy)pyrrolidin-1-yl)-3,3-dimethyl-1-oxobutan-2-yl)carbamate] | 46
COC(=O)N[C@H](C(=O)N1C[C@H]2[C@@H]([C@H]1C(=O)N[C@@H](CCC(C)(F)F)C(=O)C(=O)NC1CC1)C21CCOCC1)C(C)(C)C [Example 60, Methyl ((S)-1-((1R,2S,5S)-2-(((S)-1-(cyclopropylamino)-6,6-difluoro-1,2-dioxoheptan-3-yl)carbamoyl)tetrahydro-3-azaspiro[bicyclo[3.1.0]hexane-6,4′-pyran]-3-yl)-3,3-dimethyl-1-oxobutan-2-yl)carbamate] | 19
CNC(=O)C(=O)[C@H](CCC(C)(F)F)NC(=O)[C@@H]1[C@H]2CCC(F)(F)[C@H]2CN1C(=O)[C@@H](NC(=O)OC)C(C)(C)C [Example 35, Methyl ((S)-1-((1S,3aR,6aS)-1-(((S)-6,6-difluoro-1-(methylamino)-1,2-dioxoheptan-3-yl)carbamoyl)-4,4-difluorohexahydrocyclopenta[c]pyrrol-2(1H)-yl)-3,3-dimethyl-1-oxobutan-2-yl)carbamate] | 8.2
COC(=O)N[C@@H](Cc1noc(C)n1)C(=O)N1C[C@H]2[C@@H]([C@H]1C(=O)N[C@@H](CCC(C)(F)F)C(=O)C(=O)NC1CC1)C2(C)C [Example 123, methyl ((S)-1-((1R,2S,5S)-2-(((S)-1-(cyclopropylamino)-6,6-difluoro-1,2-dioxoheptan-3-yl)carbamoyl)-6,6-dimethyl-3-azabicyclo[3.1.0]hexan-3-yl)-3-(5-methyl-1,2,4-oxadiazol-3-yl)-1-oxopropan-2-yl)carbamate] | 29
CNC(=O)C(=O)[C@H](CCC(C)(F)F)NC(=O)C1CCCC(C)N1C(=O)[C@@H](NC(=O)OC)C(C)(C)C (single isomer, unassigned) [Example 110, methyl ((S)-1-((2S,6S or 2R,6R)-2-(((S)-6,6-difluoro-1-(methylamino)-1,2-dioxoheptan-3-yl)carbamoyl)-6-methylpiperidin-1-yl)-3,3-dimethyl-1-oxobutan-2-yl)carbamate] | 61
